In series [1] the test system is HUTU-80 human duodenal adenocarcinoma cell line. The series can be described thus: Cell saturation binding assay, HUTU-80. As to conditions: 68Ga-labeled compound. On the procedure:
(1) For the cell saturation binding assay, a total of 8 radiolabeled ligand concentrations were set at intervals within the anticipated range. For each concentration, there were 3 groups: the non-inhibition group, the first single inhibition group (FAP single inhibition group), and the second single inhibition group (CXCR4/GRPR/αvβ3 single inhibition group). For each concentration and each group, 3 replicate wells were established.
(§1) (2) Cells were plated into a 24-well plate according to the cell plating procedure described above.
(3) The original culture medium was removed from the 24-well plate. Then, 400 μL of 100 mg/mL skimmed milk solution was added to each well for blocking for one hour. After removing the skimmed milk solution, each of wells was washed three times by adding 400 μL of PBS solution. Subsequently, 146 μL of FBS-free medium was added to each well. Next, the non-inhibition group received 4 μL of cold PBS per well, while the first single inhibition group and the second single inhibition group received the following additions per well according to Table 4: 2 μL of non-radiolabeled first single inhibitor solution and 2 μL of cold PBS; 2 μL of non-radiolabeled second single inhibitor solution and 2 μL of cold PBS. The plate was then incubated at room temperature for one hour.
(4) The ligands were radiolabeled with 68Ga using the labeling method described previously. Different volumes of FBS-free medium were added to formulate the radioligand systems at corresponding concentrations. Then, 50 μL of the corresponding concentration of the radioligand system was added to each well.
(5) The supernatant was removed, and the wells were washed three times with 400 μL of PBS. 200 μL of IM NaOH solution was added to each well for cell lysis. […] Each well was washed once with 400 μL of PBS solution, and the washings were sequentially added to the corresponding radioimmunoassay tubes.
(6) Radioactivity in the cells was measured using a γ counter. The equilibrium dissociation constant (KD) was obtained by fitting the curve using nonlinear regression analysis in GraphPad Prism software. KD is the drug concentration that causes half of the maximum effect (50% receptor occupancy).

Series [2] shares this test system. As to the kind of experiment: Cell uptake and inhibition assay, HUTU-80. The class given is cell-based. On the procedure: The cell lines involved in the cell experiments in the test examples include: SUM149PT human breast cancer cell line, HUTU-80 human duodenal adenocarcinoma cell line, and U-118 MG human brain astrocytoma/glioblastoma cell line.
HUTU-80: Complete medium was formulated using DMEM high-glucose medium, 10% FBS, and a penicillin-streptomycin solution. The cells were cultured in a constant temperature incubator at 37° C. with 5% CO2. The culture medium was regularly replaced, and the cells were passaged. The culture medium was generally changed every 2 to 3 days. The growth of the tumor cells was observed daily under a microscope, including monitoring cell growth status, checking for adherence, examining cell morphology for any abnormalities, checking for contamination, and observing medium color for any abnormalities. Cells were passaged when they reached 80-90% confluence.
When cell confluence in the culture flask reached 80%, the cells were digested and centrifuged, and the supernatant was removed. An appropriate amount of medium was added to dilute so that each well contained 500 μL of medium for plating. After thorough mixing by pipetting, the cell suspension was seeded into a 24-well plate at a density of 5×10^5 cells per well. The plate was then placed into the incubator for continued growth. The cells were ready for cellular experiments when they reached 80% confluence.
(1) The cell uptake assay established four incubation time points: 15, 30, 60, and 120 minutes, respectively. For each time point, four groups were set up: non-inhibition group, a first single inhibition group (FAP single inhibition), a second single inhibition group (CXCR4/GRPR/αvβ3 single inhibition), and a dual inhibition group (FAP inhibitor+CXCR4/GRPR/αvβ3 inhibitor). Each group at each time point was set up with 3 triplicate wells.
as §1
(3) The original culture medium was removed from the 24-well plate. Then, 400 μL of 100 mg/mL skimmed milk solution was added to each well for blocking for one hour. After removing the skimmed milk solution, each of the wells was washed three times by adding 400 μL of PBS solution. Subsequently, 146 μL of FBS-free medium was added to each well. […]
(6) The radioactivity in the cells was measured using a γ counter. […]

The nature of series [3]: Isoelectric point (PI) measurement. The series is classed as physicochemical. As to conditions: unlabeled compound.

SMILES strings stand for the structures. Read-outs that look alike come from different tables or passages of the source.

Regarding `CC(C)CC(CC(C)C)NC(=O)[C@H](Cc1cnc[nH]1)NC(=O)CNC(=O)C(NC(=O)[C@H](C)NC(=O)[C@H](Cc1c[nH]c2ccccc12)NC(=O)[C@H](CCC(N)=O)NC(=O)[C@@H](Cc1ccccc1)NC(=O)COCC(=O)Nc1ccc(CNC(=O)COCCOCCNC(=O)COCCOCCNC(=O)[C@H](CCCCNC(=O)CN2CCN(CC(=O)O)CCN(CC(=O)O)CCN(CC(=O)O)CC2)NC(=O)CCC(=O)N2CCN(CCCOc3ccc4nccc(C(=O)NCC(=O)N5CC(F)(F)C[C@H]5C#N)c4c3)CC2)cc1)C(C)C` (stereo partly drawn) [SDYD03], the “KD values / binding affinity to the receptors (in words)” value in series [1] is “relatively low KD values”. Also, the Kd turned out to be 1.76 ± 0.224 nM in series [1] (BBN solution (GRPR inhibitor), read-out: KD value, Second single inhibition group (CXCR4/GRPR/αvβ3 single inhibition)); 0.884 ± 0.152 nM in series [1] (FAPI-04 solution, read-out: KD value, First single inhibition group (FAP single inhibition)); 1.23 ± 0.331 nM in series [1] (read-out: KD value, Non-inhibition group). The “cell uptake over incubation time (in words)” value in series [2] (15-120 minutes) was “increased slowly and reached a plateau from 15 to 120 minutes”. Further, the “cell uptake, comparison of non-inhibition, FAP single, GRPR single and dual inhibition groups (in words)” value in series [2] (FAPI-04 and BBN as inhibitors) is “cell uptake in the non-inhibition group was consistently higher than that in the other three groups”. Also, the “inhibition rate, comparison of inhibition groups (in words)” value in series [2] (FAPI-04 and BBN as inhibitors) is “inhibition rate of the dual inhibition group was higher than that of the FAP single inhibition group and the GRPR single inhibition group”. Also, the “specific binding to FAP and GRPR (in words)” value in series [2] (conclusion from inhibition groups) was “can specifically bind to both FAP and GRPR”. Moreover, the “PI range of series of peaks” value in series [3] is given as 5.992-7.095.

(Values after patent publication US20260069728A1, “MULTI-TARGETING COMPOUND AND USE THEREOF” (Chengdu Shetai Medical Technology Co., Ltd., priority 2023, published 2026).)
